In assay [1] the target is BCL2 WT (Homo sapiens (Human), UniProt P10415). As to the kind of experiment: TR-FRET competitive binding assay, BCL2 WT. Conditions: Ki determined from IC50, read-out: TR_FRET EKI_Bcl2 WT. Summed up:
(§1)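 Terbium-labelled N-terminal Halo-fusion BCL2 or BCLXL (E. coli), 0.5 nM, competed against fluorescein-labelled PUMA peptide (2 or 20 nM) for 2 h at 23° C in 50 mM Hepes pH 7.5, 150 mM NaCl, 5% DMSO. TR-FRET 520/495 nm ratio gave IC50 by four-parameter fit; Ki derived from IC50.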

Assay [2] has as its target BCL2 G101V (Homo sapiens, UniProt P10415, G101V). As to the kind of experiment: TR-FRET competitive binding assay, BCL2 G101V. The following applies: BCL2 G101V; Ki determined from IC50; read-out: TR_FRET EKI_Bcl2 G101V. Summed up:
as §1

For assay [3], the system named is BCL2 G101V. Kind of assay: TR-FRET competitive binding assay, BCL2 G101V. On the set-up: species or system human. Conditions: ratio Ki BCL2 G101V / Ki BCL2 WT. Summed up:
as §1

The target of assay [4] is BCL2 D103Y (Homo sapiens, UniProt P10415, D103Y). Kind of assay: TR-FRET competitive binding assay, BCL2 D103Y. The following applies: Ki determined from IC50, read-out: TR_FRET EKI_Bcl2 D103Y. Summed up: as §1
Assay [5] concerns the target BCL2 F104I (Homo sapiens, UniProt P10415, F104I). As to the kind of experiment: TR-FRET competitive binding assay, BCL2 F104I. The following applies: Ki determined from IC50, read-out: TR_FRET EKI_Bcl2 F104I. Summed up: as §1
The target in assay [6] is BCL2 D111A (Homo sapiens, UniProt P10415, D111A). Kind of assay: TR-FRET competitive binding assay, BCL2 D111A. The following applies: Ki determined from IC50, read-out: TR_FRET EKI_Bcl2 D111A. Summed up:
as §1

Assay [7] addresses BCLXL WT (Homo sapiens (Human), UniProt Q07817). Kind of assay: TR-FRET competitive binding assay, BCLXL WT. The following applies: for Ki: BCLXL WT, Ki determined from IC50, read-out: TR_FRET EKI BclxL; for TR_FRET EKI BCLxL/WT selectivty ratio: ratio Ki BCLxL / Ki BCL2 WT. Summed up:
as §1

Assay [8] has as its system KMS-12-PE Bcl-2 WT. Kind of assay: In vitro cytotoxicity CellTiter-Glo 48 h, KMS-12-PE Bcl-2 WT. The assay is classed as cell-based. The following applies: Homo sapiens, KMS-12-PE, C50 = concentration needed to reach 50% of the cellular viability. Summed up:
(§2)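 KMS-12-PE myeloma cells lentivirally transduced with Bcl-2 WT or G101V (TagRFP-sorted), exposed to compound 11-point dose-response for 48 h at 37 °C, 5% CO2. Viability read by CellTiter-Glo ATP luminescence; C50 is the concentration giving 50% cellular viability.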

For assay [9], the system named is KMS-12-PE Bcl-2 G101V. As to the kind of experiment: In vitro cytotoxicity CellTiter-Glo 48 h, KMS-12-PE Bcl-2 G101V. The following applies: for Ratio (G101V/WT): C50 KMS-12-PE Bcl-2 G101V over C50 KMS-12-PE Bcl-2 WT; for IC50: Homo sapiens, KMS-12-PE, 48 h, CellTiter-Glo, C50 = concentration needed to reach 50% of the cellular viability. It is filed as cell-based. Summed up: as §2

BCLXL WT, sequence (Q07817 other isoform, or with tags, fused parts or gaps): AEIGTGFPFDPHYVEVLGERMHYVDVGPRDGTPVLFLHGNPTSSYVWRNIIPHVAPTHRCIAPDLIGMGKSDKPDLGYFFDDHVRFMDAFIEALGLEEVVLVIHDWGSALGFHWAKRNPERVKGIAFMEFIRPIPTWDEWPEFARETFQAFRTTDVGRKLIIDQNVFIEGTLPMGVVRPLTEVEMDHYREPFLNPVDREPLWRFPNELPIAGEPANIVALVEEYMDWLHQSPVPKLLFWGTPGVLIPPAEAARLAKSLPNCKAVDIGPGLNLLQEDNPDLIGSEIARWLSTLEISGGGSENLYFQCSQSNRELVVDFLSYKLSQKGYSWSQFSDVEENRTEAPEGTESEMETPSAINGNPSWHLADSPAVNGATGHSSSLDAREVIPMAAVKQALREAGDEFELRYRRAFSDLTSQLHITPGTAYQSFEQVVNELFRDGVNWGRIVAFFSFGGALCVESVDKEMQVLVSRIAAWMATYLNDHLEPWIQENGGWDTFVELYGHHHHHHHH

Consider `Cc1c(N(C(=O)c2cc(-c3cc4c(cc3C(=O)N3Cc5ccccc5C[C@H]3C)CN(C(=O)Cc3ccc(OCCN5CCN(C6CC6)CC5)cc3)CC4)n(C)c2C)c2ccc(O)cc2)cc(C#N)n1C` [Example 31, N-(5-cyano-1,2-dimethyl-1H-pyrrol-3-yl)-5-[2-(2-{4-[2-(4-cyclopropylpiperazin-1-yl)ethoxy]phenyl}acetyl)-7-[(3R)-3-methyl-1,2,3,4-tetrahydroisoquinoline-2-carbonyl]-1,2,3,4-tetrahydroisoquinolin-6-yl]-N-(4-hydroxyphenyl)-1,2-dimethyl-1H-pyrrole-3-carboxamide], for which the Ki came out at 0.11 nM in [1]; 0.3 nM in assay [2]; 0.4 nM in [4]; 0.52 nM in assay [5]; 0.26 nM in assay [6]; 1.3 nM in [7]. Besides, in assay [3], the “TR_FRET EKI G101V/WT selectivty ratio” value amounted to 2.6. In assay [7], the “TR_FRET EKI BCLxL/WT selectivty ratio” value was determined as 11.8. The IC50 is 0.0077 µM in assay [8] and 0.0312 µM in assay [9]. For the same compound, in [9], the “Ratio (G101V/WT)” value turned out to be 4.05.

As to `Cc1c(N(C(=O)c2cc(-c3cc4c(cc3C(=O)N3Cc5ccccc5C[C@H]3C)CN(C(=O)Cc3ccc(OCCN(C)C5CC5)cc3)CC4)n3c2CCCC3)c2ccc(O)cc2)cc(C#N)n1C` [Example 35, N-(5-cyano-1,2-dimethyl-pyrrol-3-yl)-3-[2-[2-[4-[2-[cyclopropyl(methyl)amino]ethoxy]phenyl]acetyl]-7-[(3R)-3-methyl-3,4-dihydro-1H-isoquinoline-2-carbonyl]-3,4-dihydro-1H-isoquinolin-6-yl]-N-(4-hydroxyphenyl)-5,6,7,8-tetrahydroindolizine-1-carboxamide], the Ki came to 0.26 nM in assay [1]; 0.7 nM in assay [2]; 1.35 nM in assay [4]; 0.77 nM in assay [5]; 0.27 nM in [6]; 2.6 nM in assay [7]. Besides, the “TR_FRET EKI G101V/WT selectivty ratio” value in assay [3] came out at 2.6. The “TR_FRET EKI BCLxL/WT selectivty ratio” value in [7] is reported as 10.0. Moreover, the IC50 in assay [8] was determined as 0.0068 µM; in [9], 0.0254 µM. The “Ratio (G101V/WT)” value in assay [9] is 3.75.

`Cc1c(N(C(=O)c2cc(-c3cc4c(cc3C(=O)N3Cc5ccccc5C[C@H]3C)CN(C(=O)Cc3ccc(OCCN5CCN6CCOC[C@@H]6C5)cc3)CC4)n(C)c2C)c2ccc(O)cc2)cc(C#N)n1C` [Example 36, 5-{2-[2-(4-{2-[(9aS)-octahydropyrazino[2,1-c][1,4]oxazin-8-yl]ethoxy}phenyl)acetyl]-7-[(3R)-3-methyl-1,2,3,4-tetrahydroisoquinoline-2-carbonyl]-1,2,3,4-tetrahydroisoquinolin-6-yl}-N-(5-cyano-1,2-dimethyl-1H-pyrrol-3-yl)-N-(4-hydroxyphenyl)-1,2-dimethyl-1H-pyrrole-3-carboxamide]: the Ki in assay [1] is 0.11 nM; in [2], 0.3 nM; in assay [4] it was 0.33 nM; in [5], 0.16 nM; in assay [6], 0.06 nM; in assay [7] it was 1.4 nM. In addition, the “TR_FRET EKI G101V/WT selectivty ratio” value in [3] is recorded as 2.5. Also, the “TR_FRET EKI BCLxL/WT selectivty ratio” value in assay [7] is listed as 12.7. Further, the 50% inhibitory concentration (IC50) in assay [8] came to 0.0103 µM; in assay [9], 0.0386 µM. Besides, the “Ratio (G101V/WT)” value in assay [9] came to 3.75.

With `Cc1c(N(C(=O)c2cc(-c3cc4c(cc3C(=O)N3Cc5ccccc5C[C@H]3C)CN(C(=O)Cc3ccc(CCN5CCOCC5)cc3)CC4)n(C)c2C)c2ccc(O)cc2)cc(C#N)n1C` [Example 38, N-(5-cyano-1,2-dimethylpyrrol-3-yl)-N-(4-hydroxyphenyl)-1,2-dimethyl-5-(7-{[(3R)-3-methyl-3,4-dihydro-1H-isoquinolin-2-yl]carbonyl}-2-(2-{4-[2-(morpholin-4-yl)ethyl]phenyl}acetyl)-3,4-dihydro-1H-isoquinolin-6-yl)pyrrole-3-carboxamide], the Ki in assay [1] is 0.1 nM; in [2], 0.5 nM; in assay [4], 0.32 nM; in assay [5] it was 0.82 nM; in assay [6], 0.15 nM; in assay [7], 1 nM. For the same compound, the “TR_FRET EKI G101V/WT selectivty ratio” value in assay [3] is 4.8. Also, the “TR_FRET EKI BCLxL/WT selectivty ratio” value in assay [7] is 10.0. Besides, the IC50 in assay [8] turned out to be 0.0091 µM; in assay [9], 0.0509 µM. Further, in assay [9], the “Ratio (G101V/WT)” value stood at 5.57.

Consider `Cc1c(N(C(=O)c2cc(-c3cc4c(cc3C(=O)N3Cc5ccccc5C[C@H]3CN3CCCCC3)CN(C(=O)Cc3ccc(Cl)cc3F)CC4)n(C)c2C)c2ccc(O)cc2)cc(C#N)n1C` [Example 44, 5-{2-[2-(4-chloro-2-fluorophenyl)acetyl]-7-{[(3S)-3-(piperidin-1-ylmethyl)-3,4-dihydro-1H-isoquinolin-2-yl]carbonyl}-3,4-dihydro-1H-isoquinolin-6-yl}-N-(5-cyano-1,2-dimethylpyrrol-3-yl)-N-(4-hydroxyphenyl)-1,2-dimethylpyrrole-3-carboxamide], for which the Ki in assay [1] was 0.06 nM; in assay [2], 0.5 nM; in assay [4] it was 0.35 nM; in assay [5] it was 1.34 nM; in assay [6], 0.24 nM; in assay [7], 2.2 nM. For the same compound, the “TR_FRET EKI G101V/WT selectivty ratio” value in [3] amounted to 8.5. In addition, the “TR_FRET EKI BCLxL/WT selectivty ratio” value in assay [7] was found to be 36.1. Besides, the IC50 in [8] turned out to be 0.0073 µM; in assay [9], 0.0886 µM. The “Ratio (G101V/WT)” value in assay [9] came out at 12.2.

`Cc1c(N(C(=O)c2cc(-c3cc4c(cc3C(=O)N3Cc5ccccc5C[C@H]3C)CN(C(=O)Cc3ccc(OCCN5CCOCC5)cc3Cl)CC4)n(C)c2C)c2ccc(O)cc2)cc(C#N)n1C` [Example 46, 5-[2-(2-{2-chloro-4-[2-(morpholin-4-yl)ethoxy]phenyl}acetyl)-7-[(3R)-3-methyl-1,2,3,4-tetrahydroisoquinoline-2-carbonyl]-1,2,3,4-tetrahydroisoquinolin-6-yl]-N-(5-cyano-1,2-dimethyl-1H-pyrrol-3-yl)-N-(4-hydroxyphenyl)-1,2-dimethyl-1H-pyrrole-3-carboxamide]: the Ki was 0.14 nM in assay [1]; 0.3 nM in [2]; 0.23 nM in assay [4]; 0.35 nM in assay [5]; 0.2 nM in assay [6]; 1.5 nM in [7]. Also, the “TR_FRET EKI G101V/WT selectivty ratio” value in assay [3] came to 2.4. Moreover, in [7], the “TR_FRET EKI BCLxL/WT selectivty ratio” value was 10.7. For the same compound, the values for the IC50 in assay [8] and in assay [9] were 0.0051 µM and 0.0256 µM, respectively. For the same compound, the “Ratio (G101V/WT)” value in assay [9] is 5.

In the case of `Cc1c(N(C(=O)c2cc(-c3cc4c(cc3C(=O)N3Cc5ccccc5C[C@H]3C)CN(C(=O)Cc3ccc(OCCN5CCN(CC(F)F)CC5)cc3)CC4)n(C)c2C)c2ccc(O)cc2)cc(C#N)n1C` [Example 47, N-(5-cyano-1,2-dimethyl-1H-pyrrol-3-yl)-5-{2-[2-(4-{2-[4-(2,2-difluoroethyl)piperazin-1-yl]ethoxy}phenyl)acetyl]-7-[(3R)-3-methyl-1,2,3,4-tetrahydroisoquinoline-2-carbonyl]-1,2,3,4-tetrahydroisoquinolin-6-yl}-N-(4-hydroxyphenyl)-1,2-dimethyl-1H-pyrrole-3-carboxamide], the Ki in assay [1] stood at 0.11 nM; in [2], 0.2 nM; in assay [4] it was 0.24 nM; in [5], 0.46 nM; in assay [6], 0.16 nM; in assay [7], 2 nM. Besides, the “TR_FRET EKI G101V/WT selectivty ratio” value in [3] stood at 2.0. In addition, the “TR_FRET EKI BCLxL/WT selectivty ratio” value in assay [7] was 18.9. Besides, the IC50 in [8] amounted to 0.008 µM; in assay [9], 0.0362 µM. Moreover, the “Ratio (G101V/WT)” value in [9] was determined as 4.5.

As to `Cc1c(N(C(=O)c2cc(-c3cc4c(cc3C(=O)N3Cc5ccccc5C[C@H]3C)CN(C(=O)Cc3ccc(C5CCN(CC(F)F)CC5)cc3F)CC4)n(C)c2C)c2ccc(O)cc2)cc(C#N)n1C` [Example 48, N-(5-cyano-1,2-dimethylpyrrol-3-yl)-5-[2-(2-{4-[1-(2,2-difluoroethyl)piperidin-4-yl]-2-fluorophenyl}acetyl)-7-{[(3R)-3-methyl-3,4-dihydro-1H-isoquinolin-2-yl]carbonyl}-3,4-dihydro-1H-isoquinolin-6-yl]-N-(4-hydroxyphenyl)-1,2-dimethylpyrrole-3-carboxamide], the Ki in assay [1] worked out at 0.5 nM; in assay [2], 1.3 nM; in assay [4], 0.79 nM; in [5] it was 10.2 nM; in [6], 1.63 nM; in assay [7], 9.4 nM. Also, in [3], the “TR_FRET EKI G101V/WT selectivty ratio” value was found to be 2.6. Also, the “TR_FRET EKI BCLxL/WT selectivty ratio” value in [7] was 18.8. Moreover, the IC50 in [8] stood at 0.0048 µM; in assay [9], 0.0268 µM. In addition, in assay [9], the “Ratio (G101V/WT)” value is recorded as 6.44.

Values taken from patent publication US20250179047A1, “5-[7-(3,4-DIHYDRO-1H-ISOQUINOLINE-2-CARBONYL)-1,2,3,4 TETRAHYDROISOQUINOLIN-6-YL]-1H-PYRROLE-3-CARBOXAMIDE DERIVATIVES, PHARMACEUTICAL COMPOSITIONS CONTAINING THEM AND THEIR USES AS PRO-APOPTOTIC AGENTS” (LES LABORATOIRES SERVIER, priority 2022, published 2025).
